Patent US20120071516A1, “COMPOUNDS THAT MODULATE INTRACELLULAR CALCIUM” (CalciMedica, Inc., priority 2010, published 2012)

Assays:
Orai1/STIM1 = biological target: T1, Orai1/STIM1 (Homo sapiens, UniProt Q96D31); experiment: Fluorescence-based assay of store-operated calcium entry in Orai1/STIM1 stable cells; format: cell-based; set-up: key to Orai1/STIM1 (IC50, μmol): A ≦ 1.0 μmol; B > 1.0 μmol; -- = no fit; conditions: HEK-293 cells stably expressing human STIM1 and Orai1, 50% inhibition of Peak-Basal fluo-4 signal, 30 minutes compound incubation; for IC50: read-out: Orai1/STIM1 (IC50, μmol)
T1 construct: c-myc (C); expressed in transfected cells
T1 sequence (Q96D31 whole entry): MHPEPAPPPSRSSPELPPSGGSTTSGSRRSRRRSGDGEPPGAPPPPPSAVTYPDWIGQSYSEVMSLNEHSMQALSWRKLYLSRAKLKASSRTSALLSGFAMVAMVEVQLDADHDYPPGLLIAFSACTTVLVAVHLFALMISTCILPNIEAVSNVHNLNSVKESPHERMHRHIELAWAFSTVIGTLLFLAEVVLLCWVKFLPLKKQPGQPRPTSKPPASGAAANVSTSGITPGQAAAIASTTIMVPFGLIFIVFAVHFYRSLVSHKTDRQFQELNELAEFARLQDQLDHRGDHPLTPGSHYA
Procedure: A. Fluorescence-Based Assay of Store-Operated Calcium Entry in Orail/STIM1 Stable Cells.
Cells stably expressing recombinant human STIM1 and Orail are generated by transfecting a human Orail expression plasmid (pcDNA3.1-Orail-cmyc) into HEK-293 cells stably overexpressing human STIM1 (Roos et al. 2005 JCB 169(3): 435-445). Colonies of cells stably expressing both STIM1 and Orail proteins are selected and then subcloned by limiting dilution. Cells were cultured at 37° C./6% CO2 in complete medium with 10% FBS and appropriate selection markers.
The day prior to performing the assay Orail/STIM1 stable cells are plated in 50 μL of complete medium at 90-95% confluence in a 384 well plate. Cells are grown at 37° C./6% CO2 overnight. On the day of the assay, 1.5 μM fluo-4-AM (Invitrogen) in complete medium is added to the cells, which are then incubated for 1 hour at RT. Cells are washed once in Ca^2+-free HBSS (Hank's buffered saline solution) and 35 μl of Ca^2+-free HBSS is added to each well. Test compounds are added to wells in a 10 μL Ca^2+-free HBSS solution, prepared at 4.5× the desired final concentration, and incubated for 30 minutes at RT. The initial baseline fluorescence signal is then measured with a FLIPR^384 (Molecular Devices) plate reader. Calcium entry is initiated by adding 5 μl of 10×CaCl2 (10 mM) in HBSS, and changes in cellular fluorescence are measured with the FLIPR^384 plate reader. In each well, the magnitude of the fluorescence signal as a result of calcium entry into the cell is determined by calculating the difference between the peak fluorescence signal measured after calcium addition and the initial baseline fluorescence signal (designated Peak-Basal). IC50 values are typically calculated as the concentration that inhibited 50% of the Peak-Basal signal (Table A).

RBL-2H3 cells = experiment: Fluorescence-based assay of store-operated calcium entry in RBL-2H3 cells; format: cell-based; conditions: Rattus norvegicus, thapsigargin, 50% inhibition of Upslope (7 seconds after calcium addition), read-out: RBL-2H3 (IC50, μmol)
Procedure: B. Fluorescence-Based Assay of Store-Operated Calcium Entry in RBL-2H3 Cells.
RBL-2H3 cells are obtained from ATCC and maintained in complete medium with 10% FBS at 37° C./6% CO2.
The day prior to performing the assay, RBL-2H3 cells are plated in 50 μL of complete medium in a 384 well plate. Cells are grown at 37° C./6% CO2 overnight and grow to 50-60% confluence by the next day. On the assay day, 1.5 μM Fluo-4-AM dye (Invitrogen) in complete medium is added and incubated for 1 hour at RT. Cells are washed twice in Ca^2+-free HBSS buffer and 35 μL Ca^2+-free HBSS buffer is added to each well. 10 μL of a test compound prepared in a Ca^2+-free HBSS solution at 4.5× of the desired concentration is added to a well and incubated for 5 minutes at RT. 10 μL of thapsigargin prepared in a Ca^2+-free HBSS solution at 5.5× of the desired concentration (5.5 uM) is added to each well and incubated for an additional 25 minutes. The initial baseline fluorescence signal is measured with a FLIPR^384 (Molecular Devices) plate reader. 5 μL of 12× calcium in HBSS (12 mM) is added and changes in cellular fluorescence are measured with the FLIPR^384 plate reader. In each well, the change in the fluorescent signal as a function of time due to calcium entry into the cell is determined by calculating the difference between the fluorescent signal measured 7 seconds after calcium addition and the initial baseline fluorescence signal at time zero (t=0). This parameter is designated Upslope. The IC50 value is calculated as the concentration at which 50% of the Upslope is inhibited.

[1] = biological target: STIM1 and Orail in HEK293 cells (Homo sapiens, UniProt Q96D31); conditions: HEK293 cells co-expressing STIM1 and Orai1; cited from earlier work
Sequence of STIM1 and Orail in HEK293 cells (Q96D31 whole entry): as above

Jurkat cells = Jurkat cells and colon cancer cells; cited from earlier work

Row | Structure (SMILES) | IC50 (RBL-2H3 cells) [µM] | IC50 (Orai1/STIM1) [µM] | also measured
1 | Cc1cc(OC(F)(F)F)ccc1-c1cnc(NC(=O)c2c(F)cccc2F)[se]1 | ≤ 1 |  | Orai1/STIM1 (IC50, μmol) (Orai1/STIM1): --
2 | Cn1nc(-c2ccco2)cc1-c1ccc(C(=O)Nc2ccncc2F)[se]1 | ≤ 1 | ≤ 1 | 
3 | Cc1cc(OC(F)(F)F)ccc1-c1cnc(NC(=O)c2ccccc2F)[se]1 | ≤ 1 | ≤ 1 | 
4 | O=C(Nc1[se]cc(-c2ccc(Br)cc2)c1C(=O)O)c1nc2ccccc2s1 | ≤ 1 | > 1 | 
5 | Cc1cscc1-c1cnc(NC(=O)c2ccccc2F)[se]1 | ≤ 1 | > 1 | 
6 | NCCOB(c1ccccc1)c1ccccc1 [2-aminoethoxydiphenylborate] |  |  | block of store-operated Ca2+ entry [1]: completely blocked
7 | O=C(Nc1ccncc1F)c1ccc(-c2cc(C(F)(F)F)ccc2Cl)[se]1 | > 1 | > 1 | 
8 | Cc1ccccc1-c1cnc(NC(=O)c2c(F)cccc2F)[se]1 | ≤ 1 | ≤ 1 | 
9 | CCn1nc(C(F)(F)F)cc1-c1cnc(NC(=O)c2ccccc2F)[se]1 | ≤ 1 | ≤ 1 | 
10 | Cn1nc(C(F)(F)F)cc1-c1cnc(NC(=O)c2ccccc2Cl)[se]1 | ≤ 1 | ≤ 1 | 
11 | Cc1ccccc1-c1cnc(NC(=O)c2ccccc2Cl)[se]1 | ≤ 1 | ≤ 1 | 
12 | Cn1nc(C(F)(F)F)cc1-c1ccc(C(=O)Nc2ccccc2F)[se]1 | ≤ 1 | ≤ 1 | 
13 | Cc1ccc(Cl)cc1-c1cnc(NC(=O)c2ccccc2F)[se]1 | ≤ 1 | ≤ 1 | 
14 | O=C(Nc1[se]cc(-c2ccc(Cl)cc2)c1C(=O)O)c1nc2ccccc2s1 | > 1 | > 1 | 
15 | Cn1nc(-c2ccccc2F)cc1-c1ccc(C(=O)Nc2ccncc2F)[se]1 | ≤ 1 | ≤ 1 | 
16 | Cc1ccccc1-c1cnc(NC(=O)c2ccccc2F)[se]1 | ≤ 1 | ≤ 1 | 
17 | Cc1cc2c(cc1-c1cnc(NC(=O)c3c(F)cccc3F)[se]1)OC(F)(F)O2 | ≤ 1 | > 1 | 
18 | Cn1nc(-c2ccco2)cc1-c1ccc(C(=O)Nc2c(F)cccc2F)[se]1 | > 1 |  | Orai1/STIM1 (IC50, μmol) (Orai1/STIM1): --

Row | Structure (SMILES) | IC50 (RBL-2H3 cells) [µM] | IC50 (Orai1/STIM1) [µM] | also measured
19 | O=C(Nc1ncc(-c2ccccc2C(F)(F)F)[se]1)c1ccccc1F | ≤ 1 | ≤ 1 | 
20 | Cn1nc(-c2nccs2)cc1-c1ccc(C(=O)Nc2ccccc2F)[se]1 | ≤ 1 | ≤ 1 | 
21 | Cn1nc(-c2nccs2)cc1-c1ccc(C(=O)Nc2ccncc2F)[se]1 | ≤ 1 | ≤ 1 | 
22 | O=C(Nc1[se]cc(-c2ccc(Br)cc2)c1C(=O)O)c1cc2ccccc2o1 | ≤ 1 | ≤ 1 | 
23 | Cn1nc(-c2ccccc2F)cc1-c1ccc(C(=O)Nc2ccccc2F)[se]1 | ≤ 1 | ≤ 1 | 
24 | Cn1nc(C(F)(F)F)cc1-c1ccc(C(=O)Nc2ccncc2F)[se]1 | ≤ 1 | ≤ 1 | 
25 | Cc1nnsc1C(=O)Nc1ccc(-n2nc(C(F)(F)F)cc2C(F)(F)F)cc1 [BTP-2] |  |  | inhibition of SOCE (Jurkat cells): inhibits; inhibition of proliferation (Jurkat cells): inhibits
26 | Cc1nc2cc(Cl)c(-c3ccc(C(=O)Nc4ccccc4F)[se]3)cc2o1 | ≤ 1 | ≤ 1 | 
27 | Cn1nc(-c2nccs2)cc1-c1ccc(C(=O)Nc2c(F)cccc2F)[se]1 | ≤ 1 | ≤ 1 | 
28 | Cn1nc(C(F)(F)F)cc1-c1cnc(NC(=O)c2ccccc2F)[se]1 | ≤ 1 | ≤ 1 | 
29 | Cc1ccc(F)cc1-c1cnc(NC(=O)c2ccccc2F)[se]1 | ≤ 1 | ≤ 1 | 
30 | Cn1nc(C(F)(F)F)cc1-c1cnc(NC(=O)c2c(F)cccc2F)[se]1 | ≤ 1 | ≤ 1 | 
31 | Cn1nc(-c2ccccc2F)cc1-c1cnc(NC(=O)c2ccccc2F)[se]1 | ≤ 1 | > 1 | 
32 | Cc1cc2c(cc1-c1cnc(NC(=O)c3ccccc3F)[se]1)OC(F)(F)O2 | ≤ 1 | ≤ 1 | 
33 | Cc1cc2scnc2cc1-c1ccc(C(=O)Nc2c(F)cccc2F)[se]1 | ≤ 1 | ≤ 1 | 
34 | Cn1nc(-c2ccco2)cc1-c1ccc(C(=O)Nc2ccccc2F)[se]1 | ≤ 1 | ≤ 1 | 
35 | Cn1nc(C(F)(F)F)cc1-c1ccc(C(=O)Nc2c(F)cccc2F)[se]1 | ≤ 1 | ≤ 1 | 
36 | Cn1nc(-c2ccccc2F)cc1-c1ccc(C(=O)Nc2c(F)cccc2F)[se]1 | ≤ 1 | ≤ 1 | 
